# Measurements: patent US20250382308A1, “COMPOUNDS ACTIVE TOWARDS BROMODOMAINS” (NUEVOLUTION A/S, priority 2022, published 2025)
# Tests used:
# [1] = target: second bromodomain of BRD4 (Homo sapiens (Human), UniProt O60885); test: Bromoscan binding assay BRD4 (2); details: geometric mean where multiple measurements have been made
# Procedure: (§1) Compounds were assayed for binding affinity using bromoscan assays and a phosphodiesterase three assay.
# (§2) Bromoscan assays were run by DiscoveRx Corporation. The relevant assay names are BRD4 (1) for the first bromodomain of BRD4 and BRD4 (2) for the second bromodomain of BRD4. Further Bromoscan assays covering other bromodomains may be employed to establish the selectivity profile of a compound of interest. To run the Bromoscan assay, a T7 phage strain displaying the relevant bromodomain was grown in parallel in 24-well blocks in an E. coli host derived from the BL21 strain. E. coli were grown to log-phase and infected with T7 phage from a frozen stock (multiplicity of infection=0.4) and incubated with shaking at 32° C. until lysis (90-150 minutes). The lysates were centrifuged (5,000×g) and filtered (0.2 μm) to remove cell debris. […] The liganded beads were blocked with excess biotin and washed with blocking buffer (SeaBlock (Pierce), 1% BSA (bovine serum albumin), 0.05% Tween 20, 1 mM DTT (dithiothreitol)) to remove unbound ligand and to reduce non-specific phage binding. […] Test compounds were prepared as 1000× stocks in 100% DMSO and subsequently diluted 1:10 in monoethylene glycol (MEG) to create stocks at 100× the screening concentration (resulting stock solution is 10% DMSO/90% MEG). The compounds were then diluted directly into the assays such that the final concentration of DMSO and MEG were 0.1% and 0.9%, respectively. All reactions were performed in polystyrene 96-well plates in a final volume of 0.135 ml. […] The bromodomain concentration in the eluates was measured by qPCR (quantitative real-time polymerase chain reaction). Binding constants (Kds) were calculated with a standard dose-response curve using the Hill equation: Response=Blackground+((Signal-Background)/(1+Kd^Hill Slope/Dose^Hill Slope)). The Hill Slope was set to −1. Curves were fitted using a non-linear least square fit with the Levenberg-Marquardt algorithm.
# [2] = target: first bromodomain of BRD4 (Homo sapiens (Human), UniProt O60885); test: Bromoscan binding assay BRD4 (1); details: for Kd: Bromoscan, geometric mean where multiple measurements have been made; for Selectivity BRD4(2)/BRD4(1): ratio BRD4(2) Kd / BRD4(1) Kd
# Procedure: as §1, §2
Structure (SMILES),Kd [1] [nM],Kd [2] [nM],Selectivity BRD4(2)/BRD4(1) [2]
"COc1cc(NC(=O)c2cc3c(nc2N2C[C@H]4CCO[C@H]4C2)COC3)cc2c(C)cc(=O)[nH]c12 (racemic) [Example 22, N-(8-methoxy-4-methyl-2-oxo-1H-quinolin-6-yl)-2-[rac-(3aR,6aR)-2,3,3a,4,6,6a-hexahydrofuro[2,3-c]pyrrol-5-yl]-5,7-dihydrofuro[3,4-b]pyridine-3-carboxamide]",3800,170,22
"COc1cc(NC(=O)c2cc3c(nc2C2=CCCC2)COC3)cc2c(C)cc(=O)[nH]c12 [Example 3, 2-(cyclopenten-1-yl)-N-(8-methoxy-4-methyl-2-oxo-1H-quinolin-6-yl)-5,7-dihydrofuro[3,4-b]pyridine-3-carboxamide]",800,13,62
"COc1cc(NC(=O)c2cc3c(nc2N2CC4CC2(C)C4)COC3)cc2c(C)cc(=O)[nH]c12 [Example 4, N-(8-methoxy-4-methyl-2-oxo-1H-quinolin-6-yl)-2-(1-methyl-2-azabicyclo[2.1.1]hexan-2-yl)-5,7-dihydrofuro[3,4-b]pyridine-3-carboxamide]",> 5000,29,>172
"COc1cc(NC(=O)c2cc3c(nc2N2CC4C(C2)C4(F)F)COC3)cc2c(C)cc(=O)[nH]c12 (centres unmarked) [Example 5, 2-(6,6-difluoro-3-azabicyclo[3.1.0]hexan-3-yl)-N-(8-methoxy-4-methyl-2-oxo-1H-quinolin-6-yl)-5,7-dihydrofuro[3,4-b]pyridine-3-carboxamide]",200,17,12
"Cc1cc(=O)[nH]c2c3c(c(NC(=O)c4cc5c(nc4N4CCOCC4)COC5)cc12)CCO3 [Example 8, N-(6-methyl-8-oxo-3,9-dihydro-2H-furo[3,2-h]quinolin-4-yl)-2-morpholino-5,7-dihydrofuro[3,4-b]pyridine-3-carboxamide]",> 2500,56,45
"COc1c(F)c(NC(=O)c2cc3c(nc2N2CCOCC2)COC3)cc2c(C)cc(=O)[nH]c12 [Example 9, N-(7-fluoro-8-methoxy-4-methyl-2-oxo-1H-quinolin-6-yl)-2-morpholino-5,7-dihydrofuro[3,4-b]pyridine-3-carboxamide]",7400,440,17
"Cc1cc(=O)[nH]c2c3c(c(NC(=O)c4cc5c(nc4N4CCOCC4)COC5)cc12)OCCO3 [Example 10, N-(7-methyl-9-oxo-3,10-dihydro-2H-[1,4]dioxino[2,3-h]quinolin-5-yl)-2-morpholino-5,7-dihydrofuro[3,4-b]pyridine-3-carboxamide]",> 10000,43,>232
"COc1cc2[nH]c(=O)cc(C)c2cc1NC(=O)c1cc2c(nc1N1CCOCC1)COC2 [Example 14, N-(7-methoxy-4-methyl-2-oxo-1H-quinolin-6-yl)-2-morpholino-5,7-dihydrofuro[3,4-b]pyridine-3-carboxamide]",400,26,15
"COc1cc(NC(=O)c2cc3c(nc2N2CCC(F)(F)C2)COC3)cc2c(C)cc(=O)[nH]c12 [Example 16, 2-(3,3-difluoropyrrolidin-1-yl)-N-(8-methoxy-4-methyl-2-oxo-1H-quinolin-6-yl)-5,7-dihydrofuro[3,4-b]pyridine-3-carboxamide]",–,–,43
"COc1cc(NC(=O)c2cc3c(nc2N2CCC[C@H]2C)COC3)cc2c(C)cc(=O)[nH]c12 [Example 18, N-(8-methoxy-4-methyl-2-oxo-1H-quinolin-6-yl)-2-[(2R)-2-methylpyrrolidin-1-yl]-5,7-dihydrofuro[3,4-b]pyridine-3-carboxamide]",200,12,17
"COc1cc(NC(=O)c2cc3c(nc2N2CC4CCOC4C2)COC3)cc2c(C)cc(=O)[nH]c12 (centres unmarked) [Example 19, 2-(2,3,3a,4,6,6a-hexahydrofuro[2,3-c]pyrrol-5-yl)-N-(8-methoxy-4-methyl-2-oxo-1H-quinolin-6-yl)-5,7-dihydrofuro[3,4-b]pyridine-3-carboxamide]",5600,180,31
"COc1cc(NC(=O)c2cc3c(nc2N2CC4COCC4C2)COC3)cc2c(C)cc(=O)[nH]c12 (centres unmarked) [Example 20, 2-(1,3,3a,4,6,6a-hexahydrofuro[3,4-c]pyrrol-5-yl)-N-(8-methoxy-4-methyl-2-oxo-1H-quinolin-6-yl)-5,7-dihydrofuro[3,4-b]pyridine-3-carboxamide]",3400,70,49
"COc1cc(NC(=O)c2cc3c(nc2N2C4CCCC2CC4)COC3)cc2c(C)cc(=O)[nH]c12 [Example 21, 2-(8-azabicyclo[3.2.1]octan-8-yl)-N-(8-methoxy-4-methyl-2-oxo-1H-quinolin-6-yl)-5,7-dihydrofuro[3,4-b]pyridine-3-carboxamide]",1400,6,233
"COc1cc(NC(=O)c2cc3c(nc2N2CCC[C@@H]2C)COC3)cc2c(C)cc(=O)[nH]c12 [Example 25, N-(8-methoxy-4-methyl-2-oxo-1H-quinolin-6-yl)-2-[(2S)-2-methylpyrrolidin-1-yl]-5,7-dihydrofuro[3,4-b]pyridine-3-carboxamide]",4500,150,30
"CCN(CC)c1nc2c(cc1C(=O)Nc1cc(OC)c3[nH]c(=O)cc(C)c3c1)COC2 [Example 27, 2-(diethylamino)-N-(8-methoxy-4-methyl-2-oxo-1H-quinolin-6-yl)-5,7-dihydrofuro[3,4-b]pyridine-3-carboxamide]",–,–,24
"CCN(c1nc2c(cc1C(=O)Nc1cc(OC)c3[nH]c(=O)cc(C)c3c1)COC2)C(C)C [Example 28, 2-[ethyl(isopropyl)amino]-N-(8-methoxy-4-methyl-2-oxo-1H-quinolin-6-yl)-5,7-dihydrofuro[3,4-b]pyridine-3-carboxamide]",1000,33,30
"COc1cc(NC(=O)c2cc3c(nc2N2CCOCC2)CO[C@@H]3C)cc2c(C)cc(=O)[nH]c12 [Example 30, (5R)—N-(8-methoxy-4-methyl-2-oxo-1H-quinolin-6-yl)-5-methyl-2-morpholino-5,7-dihydrofuro[3,4-b]pyridine-3-carboxamide]",1200,14,86
"COc1cc(NC(=O)c2cc3c(nc2N2CCOCC2)COC3C)cc2c(C)cc(=O)[nH]c12 (centres unmarked) [Example 31, N-(8-methoxy-4-methyl-2-oxo-1H-quinolin-6-yl)-5-methyl-2-morpholino-5,7-dihydrofuro[3,4-b]pyridine-3-carboxamide]",1000,22,45
"COc1cc(NC(=O)c2cc3c(nc2N2CCOCC2)CN(C)C3)cc2c(C)cc(=O)[nH]c12 [Example 32, N-(8-methoxy-4-methyl-2-oxo-1H-quinolin-6-yl)-6-methyl-2-morpholino-5,7-dihydropyrrolo[3,4-b]pyridine-3-carboxamide]",300,17,18
"COc1cc(NC(=O)c2cc3c(nc2N2CCOCC2)CN(C2COC2)C3)cc2c(C)cc(=O)[nH]c12 [Example 33, N-(8-methoxy-4-methyl-2-oxo-1H-quinolin-6-yl)-2-morpholino-6-(oxetan-3-yl)-5,7-dihydropyrrolo[3,4-b]pyridine-3-carboxamide]",300,13,23
"CCN1Cc2cc(C(=O)Nc3cc(OC)c4[nH]c(=O)cc(C)c4c3)c(N3CCOCC3)nc2C1 [Example 34, 6-ethyl-N-(8-methoxy-4-methyl-2-oxo-1H-quinolin-6-yl)-2-morpholino-5,7-dihydropyrrolo[3,4-b]pyridine-3-carboxamide]",800,25,32
"COc1cc(NC(=O)c2cc3c(nc2N2CCOCC2)CN(C(C)C)C3)cc2c(C)cc(=O)[nH]c12 [Example 35, 6-isopropyl-N-(8-methoxy-4-methyl-2-oxo-1H-quinolin-6-yl)-2-morpholino-5,7-dihydropyrrolo[3,4-b]pyridine-3-carboxamide]",600,20,30
"COc1cc(NC(=O)c2cc3c(nc2N2CC[C@@H](F)C2)COC3)cc2c(C)cc(=O)[nH]c12 [Example 40, 2-[(3R)-3-fluoropyrrolidin-1-yl]-N-(8-methoxy-4-methyl-2-oxo-1H-quinolin-6-yl)-5,7-dihydrofuro[3,4-b]pyridine-3-carboxamide]",150,11,14
